Test results reported in US10676437B2, “Fluorinated 4-(substituted amino)phenyl carbamate derivatives” (SciFluor Life Sciences, Inc., priority 2017, dated 2020).

Columns and labels:
Format in all cases: cell-based
KCNQ4 = KCNQ4 (Homo sapiens, UniProt P56696); assay: Automated patch clamp, activation of KCNQ4 channels; settings: for Selectivity KCNQ4 EC50 / KCNQ2/3 EC50: ratio of EC50 values
Experimental: (§1) Electrophysiological studies of the compounds were performed using the Nanion SyncroPatch automated patch clamp platform.
(§2) Kv7 channels were evaluated using a voltage protocol in which cells were voltage-clamped at a holding potential of −110 mV. Potassium currents were activated with a series of voltage steps from −110 mV to +50 mV in 10 mV intervals with 5.5 seconds between successive voltage steps. Each voltage step was 3 seconds in duration and immediately followed by a 1 second voltage step to −120 mV to generate an inward “tail” current to allow construction of activation (G-V) curves by plotting normalized peak tail current versus the potential of the activating voltage step. To obtain normalized values, peak current amplitudes for successive depolarizing pulses were normalized against the maximum tail current amplitude generated at +50 mV (Tatulian et al., Journal of Neuroscience 2001, 21 (15)).
(§3) Data was collected on the Syncropatch platform using PatchControl software (Nanion) and processed and analyzed using DataControl Software (Nanion). Normalized percent activation was calculated and activation curves were fit with a Boltzmann function to determine the midpoint voltage of activation (G-V midpoint) for both pre-compound and post-compound conditions for each of the 384-wells of a sealchip with Pipeline Pilot (Accelrys). The difference in G-V midpoint between pre-compound and post-compound conditions (Δ V0.5) was plotted as a function of concentration and concentration-response curves were fit with a three-parameter logistic equation {Y=Bottom+(Top−Bottom)/(1+10^(Log EC50−X))} for determination of the EC50 (Graphpad Prism).

human Kv7.2/7.3 channels = molecular target: T1, human Kv7.2/7.3 channels (Homo sapiens, UniProt O43525+O43526); assay: Syncropatch automated patch clamp, activation of recombinantly expressed human Kv7.2/7.3 (KCNQ2/3) channels in CHO cells; settings: shift in G-V midpoint (Δ V0.5) vs concentration
T1 construct: expressed in transfected cells
Experimental: The in vitro effects of a compound of the present application recombinantly expressed human Kv7.2/7.3 channels are assessed on Syncropatch high throughput electrophysiology platform.
CHO cells stably expressing human Kv7.2/7.3 channels were cultured in Ham's F-12 media (Hyclone, Cat # SH30022.02) supplemented with 10% Fetal Bovine Serum, 1×MEM non-essential amino acids, and 400 μg/ml G418 at 37° C. in 5% CO2. On the day of Syncropatch, the cells were washed once in DPBS (Hyclone, Cat # SH30028.03) for approximately 30 seconds. 1 ml of 1×0.015% Trypsin-EDTA GIBCO Cat #25300-054) was added and swirled around to cover the bottom of the flask, and allowed to sit on the cells for about 4 minutes (approximately 90% of the cells were lifted by light tapping of the flask). 10 ml of cold media (Ham's F-12 media (Hyclone, Cat # SH30022.02) supplemented with 10% Fetal Bovine Serum, 1×MEM non-essential amino acids, and 400 μg/ml G418) was added to inactivate Trypsin. The cells were then triturated until a single cell suspension was achieved, and the cell count was performed. The cells were then diluted to a concentration of 5×10^5/ml and placed into the “cell hotel” on the deck of the Syncropatch at 10° C. for about 1 hour to recover. 40 μL of the cell suspension was dispensed into each well of a 384-well Syncropatch chip by the onboard pipettor at the beginning of each Syncropatch assay.
The compounds to be tested were dissolved in DMSO to give 10 mM stock solutions. […]
Kv7 channels were evaluated using a voltage protocol in which cells were voltage-clamped at a holding potential of −110 mV. […]
Data was collected on the Syncropatch platform using PatchControl software (Nanion) and processed and analyzed using DataControl Software (Nanion). Normalized percent activation was calculated and activation curves were fit with a Boltzmann function to determine the midpoint voltage of activation (G-V midpoint) for both pre-compound and post-compound conditions for each of the 384-wells of a sealchip with Pipeline Pilot (Accelrys). […]

KCNQ3/5 = KCNQ3/5 (Homo sapiens, UniProt O43525+Q9NR82); assay: Automated patch clamp, activation of KCNQ3/5 channels; settings: for Selectivity KCNQ3/5 EC50 / KCNQ2/3 EC50: ratio of EC50 values
Experimental: as §1, §2, §3

Row | SMILES | EC50 (KCNQ4) | Selectivity KCNQ4 EC50 / KCNQ2/3 EC50 (KCNQ4) | EC50 (human Kv7.2/7.3 channels) | EC50 (KCNQ3/5) | Selectivity KCNQ3/5 EC50 / KCNQ2/3 EC50 (KCNQ3/5)
1 | C#CCN(Cc1ccc(F)cc1)c1ccc(NC(=O)OCC)c(N)c1 [Control, reference compound] | 100 to 1000 nM | IV (IV: 10 to <50) | < 100 nM | < 100 nM | I (I: <1)
2 | Cc1c(F)c(NCc2ccc(F)cc2)c(F)c(C)c1NC(=O)CC(C)(C)C [Compound 2, N-(3,5-difluoro-4-((4-fluorobenzyl)amino)-2,6-dimethylphenyl)-3,3-dimethylbutanamide] | 1000 to 10000 nM | V (V: 50 to <100) | < 100 nM | 100 to 1000 nM | IV (IV: 10 to <50)
3 | Cc1c(F)c(N2CCc3cc(F)ccc3C2)c(F)c(C)c1NC(=O)CC(C)(C)C [Compound 1, N-(3,5-difluoro-4-(6-fluoro-3,4-dihydroisoquinolin-2 (1H)-yl)-2,6-dimethylphenyl)-3,3-dimethylbutanamide] | ≥ 10000 nM | VI (VI: ≥100) | 100 to 1000 nM | 1000 to 10000 nM | III (III: 5 to <10)
